Measured values from US20140308313A1 (priority 2006, published 2014).

Columns and labels:
[1] = system: GBS80-IgG; parameters: species or system mice; conditions: mouse, in vivo
[2] = system: MenB; parameters: species or system mice; conditions: mouse, in vivo
[3] = system: H3N2-specific antibodies; assay: α-GC in first, second or both priming doses of H3N2, challenge at week 56; type: in vivo, C57BL/6 mice
Text: FIG. 8 depicts the immunisation schedule used to assess whether α-GC is required to be present in all vaccine doses used at priming. 20 C57BL/6 female mice, aged 6-8 weeks, were divided into 4 groups of 5 mice. Group 1) was immunised with H3N2 in PBS at week 0 and H3N2+α-GC 2 weeks later. Group 2) were immunised with H3N2+α-GC at week 0 and H3N2 in PBS 2 weeks later. Group 3) were immunised with H3N2 in PBS at week 0 and week 2. Group 4) were immunised with H3N2 and α-GC at week 0 and 2 weeks later. 56 weeks after the initial immunisation, mice in all groups were challenged with 3 μg H3N2 in PBS and recall response was assessed at 58 weeks. All immunisations were intramuscular.
20 C57BL/6 female mice, aged 6-8 weeks, were divided into 4 groups of 5 mice. Group 1) was immunised with H3N2 in PBS at week 0 and H3N2+α-GC 2 weeks later. Group 2) were immunised with H3N2+α-GC at week 0 and H3N2 in PBS 2 weeks later. Group 3) were immunised with H3N2 in PBS at week 0 and week 2. Group 4) were immunised with H3N2 and α-GC at week 0 and 2 weeks later. 56 weeks after the initial immunisation, mice in all groups were challenged with 3 μg H3N2 in PBS. All immunisations were intramuscular.

[4] = system: H3N2-specific antibodies; assay: H3N2 antibody response in mice bearing or lacking iNKT cells or CD1d; type: in vivo; conditions: mice lacking CD1d (CD1−/−); data not shown
Text: Mice lacking iNKT cells (Ja18−/−) immunised with H3N2 and α-GC (closed boxes) show no enhancement in serum titer of H3N2-specific antibodies compared to mice lacking iNKT cells immunised with H3N2 alone (open boxes). All immunisations were subcutaneous.

[5] = system: MenB antigens ΔG287nz-953, 936-741 and 961c; parameters: species or system mice; conditions: mouse, in vivo
[6] = system: CD4 T cells producing TNFα; type: in vivo, CD1 mice; conditions: 10 days after 2nd immunisation, splenocytes cultured 16 hours
Description: FIG. 14 show a comparison of the CD4 T cell response against recombinant MenB antigens in mice immunised intramuscularly on day 0 and 21 with: a) a combination vaccine containing 3 MenB antigens and α-GC; b) a combination vaccine containing 3 MenB antigens and Alum; or c) with a combination vaccine containing 3 MenB antigens alone. The CD4 T cell response was assessed two weeks after the second immunisation by incubating total splenocytes with the indicated amount of MenB recombinant proteins for 16 hours ([…] of which in the presence of Brefeldin A). The number CD4 T cells producing TNFα was determined by intracellular staining and FACS analysis). […] As a positive control, response of all three groups of mice to polyclonal stimulation was tested.
A second experiment was conducted to assess the ex vivo CD4 T cell response to MenB antigens. Groups of 6 CD1 female mice were immunised twice with the mix of MenB antigens, formulated in PBS, alum or α-GC. 10 days after the 2nd immunisation, 3 mice/group were sacrificed and their spleens were removed. Whole splenocyte suspensions from individual mice were cultured with the MenB antigens for 16 hours, the last 12 of which were in the presence of brefeldin A to allow intracellular accumulation of cytokines. […] Percentages of CD3+CD4+CD69+ cytokine+ cells in the total CD4+ cell population were determined by FACS analysis.

[7] = system: MenB-specific memory B cells; parameters: species or system mice; conditions: mouse, in vivo
[8] = system: protein-specific antibodies (TT, DT, H3N2); parameters: species or system C57/BL6 mice; conditions: mouse, in vivo

Q: How did the “GBS80-IgG response in the mothers relative to alum” value [1] turn out when `CCCCCCCCCCCCCCCCCCCCCCCCCC(=O)N[C@@H](CO[C@H]1OC(CO)[C@H](O)C(O)C1O)[C@H](O)[C@@H](O)CCCCCCCCCCCCCC` (stereo partly drawn) [α-GC, α-galactosylceramide] was run?
A: The value was 8 fold.

Q: And the “bactericidal antibody titers compared to alum” value [2]?
A: The value was “higher bactericidal antibody titers than alum”.

Q: What about the “efficacy by timing of α-GC dose” value ([3]; first versus second vaccine dose) of the same molecule?
A: Its value is “Maximal efficacy was observed when α-GC was given in the first vaccine dose”.

Q: What about the “recall response (H3N2 Ig titers) compared to 2 doses of H3N2 alone” value ([3]; two weeks after booster with H3N2 alone on week 56) of the same molecule?
A: Its value is “higher recall responses”.

Q: And the “H3N2-antibody response compared to H3N2 in PBS” value ([3]; α-GC in both, first only or second only immunisation)?
A: Its value is “enhance the antibody response even when given only in the first or second immunisation”.

Q: And the adjuvant activity [4]?
A: Its adjuvant activity is “did not display adjuvant activity”.

Q: And the “antibody response (IgG titers) to the three MenB antigens” value [5]?
A: The value was “as effective as alum”.

Q: What about the “expansion of CD4 T cells producing TNFα in response to MenB antigens” value [6] of the same molecule?
A: Its value is “more effective than alum”.

Q: And the “frequencies of MenB-specific memory B cells in spleen compared to alum” value [7]?
A: The value was “higher frequencies of MenB-specific memory B cells”.

Q: What about the “serum titers of protein-specific antibodies compared to proteins alone” value [8] of the same molecule?
A: The value was “one to two logs higher”.
